In US6096930A, “Herbicidal cyclohexane-1,3-dione derivatives and their preparation process” (Korea Research Institute of Chemical Technology, priority 1994, dated 2000):
Like-named read-outs stand apart in the source and are kept apart here.

What was measured:
Format in all cases: in vivo
PANDI [1] = assay: Herbicidal activity, upland test, pre-emergence
Method: (§1) The sterilized sandy loam soil is filled in test pot having a surface area of 348 cm^2 for upland test conditions or 115 cm^2 for paddy test species were planted in furrows.
(§2) For the pre-emergent tests, were sprayed on the soil one day after planting test compound in a mixture of acetone and 7 ml of the water containing up to 0.1% Tween 20.
(§3) The concentration of the test compound in solution was varied to give a range of application rates, generally 4.0 kg/ha and submultiples thereof. The pots were placed in a greenhouse and watered regularly at the soil surface for 21 days and herbicidal effects were visually rated by a percent control.
(§4) The herbicidal activity data were taken visually by percent control, wherein 0 signifies no herbicidal effect and 100 signifies complete kill.

TRZAW = assay: Herbicidal activity, upland test, pre-emergence
Method: as §1, §2, §3, §4

SOLNI [2] = assay: Herbicidal activity, upland test, pre-emergence
Method: as §1, §2, §3, §4

ZEAMX = assay: Herbicidal activity, upland test, pre-emergence
Method: as §1, §2, §3, §4

DIGSA = assay: Herbicidal activity, upland test, pre-emergence
Method: as §1, §2, §3, §4

SORBI = assay: Herbicidal activity, upland test, pre-emergence
Method: as §1, §2, §3, §4

ORYSA [3] = assay: Herbicidal activity, upland test, pre-emergence
Method: as §1, §2, §3, §4

ECHOR [4] = assay: Herbicidal activity, upland test, pre-emergence
Method: as §1, §2, §3, §4

BROJA [5] = assay: Herbicidal activity, upland test, pre-emergence
Method: as §1, §2, §3, §4

GLXMX = assay: Herbicidal activity, upland test, pre-emergence
Method: as §1, §2, §3, §4

AESIN = assay: Herbicidal activity, upland test, pre-emergence
Method: as §1, §2, §3, §4

ABUTH [6] = assay: Herbicidal activity, upland test, pre-emergence
Method: as §1, §2, §3, §4

GOSHI [7] = assay: Herbicidal activity, upland test, pre-emergence
Method: as §1, §2, §3, §4

PANDI [8] = assay: Herbicidal activity, upland test, post-emergence
From the text: as §1
(§5) The pots for the post-emergent tests were placed in a greenhouse and watered for 9~14 days, then the foliage of test plants was sprayed with a solution of the test compound in a mixture of acetone and water containing a small amount of Tween 20.
(§6) After spraying the plants were kept for one day, then watered regularly for 14 to 21 days, and herbicidal activity data were recorded.
as §4

SOLNI [9] = assay: Herbicidal activity, upland test, post-emergence
From the text: as §1, §5, §6, §4

ORYSA [10] = assay: Herbicidal activity, upland test, post-emergence
From the text: as §1, §5, §6, §4

BROJA [11] = assay: Herbicidal activity, upland test, post-emergence
From the text: as §1, §5, §6, §4

ABUTH [12] = assay: Herbicidal activity, upland test, post-emergence
From the text: as §1, §5, §6, §4

GOSHI [13] = assay: Herbicidal activity, upland test, post-emergence
From the text: as §1, §5, §6, §4

SAGPY = assay: Herbicidal activity for paddy test
Outline: (§7)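 Visual percent-control rating: 0 = no herbicidal effect, 100 = complete kill. Plants grown in furrows, sterilized sandy loam, 115 cm^2 pots (paddy conditions).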

MOOVA = assay: Herbicidal activity for paddy test
Outline: as §7

SCPJU = assay: Herbicidal activity for paddy test
Outline: as §7

ORYSA [14] = assay: Herbicidal activity for paddy test; conditions: for plant injury at 2 g/ha: 0.002 kg/ha; for plant injury at 8 g/ha: 0.008 kg/ha; for plant injury at 31 g/ha: 0.031 kg/ha; for plant injury at 125 g/ha: 0.125 kg/ha; for plant injury at 500 g/ha: 0.500 kg/ha
Outline: as §7

ECHOR [15] = assay: Herbicidal activity for paddy test
Outline: as §7

[16] = 3 Leaf, read-out: Herbicidal activity, ORYSA (3 Leaf)
[17] = seed, read-out: Herbicidal activity, ORYSA (seed)

CCC(=NOC)C1=C(O)CC(c2c(C)c(C)c3c(c2C)CC(C)(C)C3)CC1=O (stereo not shown) [Compound 1]
Herbicidal activity, PANDI (PANDI [1]; 0.016 kg/ha): 0 % inhibition
Herbicidal activity, PANDI (PANDI [1]; 0.063 kg/ha): 100 % inhibition
Herbicidal activity, PANDI (PANDI [1]; 1.000 kg/ha): 100 % inhibition
Herbicidal activity, PANDI (PANDI [1]; 1.250 kg/ha): 100 % inhibition
Herbicidal activity, TRZAW (TRZAW; 0.016 kg/ha): 0 % inhibition
Herbicidal activity, TRZAW (TRZAW; 0.063 kg/ha): 0 % inhibition
Herbicidal activity, TRZAW (TRZAW; 1.000 kg/ha): 60 % inhibition
Herbicidal activity, TRZAW (TRZAW; 1.250 kg/ha): 20 % inhibition
Herbicidal activity, SOLNI (SOLNI [2]; 0.016 kg/ha): 0 % inhibition
Herbicidal activity, SOLNI (SOLNI [2]; 0.063 kg/ha): 0 % inhibition
Herbicidal activity, SOLNI (SOLNI [2]; 1.000 kg/ha): 0 % inhibition
Herbicidal activity, SOLNI (SOLNI [2]; 1.250 kg/ha): 0 % inhibition
Herbicidal activity, ZEAMX (ZEAMX; 0.016 kg/ha): 0 % inhibition
Herbicidal activity, ZEAMX (ZEAMX; 0.063 kg/ha): 0 % inhibition
Herbicidal activity, ZEAMX (ZEAMX; 1.000 kg/ha): 60 % inhibition
Herbicidal activity, ZEAMX (ZEAMX; 1.250 kg/ha): 10 % inhibition
Herbicidal activity, DIGSA (DIGSA; 0.016 kg/ha): 0 % inhibition
Herbicidal activity, DIGSA (DIGSA; 0.063 kg/ha): 30 % inhibition
Herbicidal activity, DIGSA (DIGSA; 1.000 kg/ha): 100 % inhibition
Herbicidal activity, DIGSA (DIGSA; 1.250 kg/ha): 70 % inhibition
Herbicidal activity, SORBI (SORBI; 0.016 kg/ha): 0 % inhibition
Herbicidal activity, SORBI (SORBI; 0.063 kg/ha): 0 % inhibition
Herbicidal activity, SORBI (SORBI; 1.000 kg/ha): 60 % inhibition
Herbicidal activity, SORBI (SORBI; 1.250 kg/ha): 20 % inhibition
Herbicidal activity, ORYSA (ORYSA [3]; 0.016 kg/ha): 0 % inhibition
Herbicidal activity, ORYSA (ORYSA [3]; 0.063 kg/ha): 30 % inhibition
Herbicidal activity, ORYSA (ORYSA [3]; 1.000 kg/ha): 100 % inhibition
Herbicidal activity, ORYSA (ORYSA [3]; 1.250 kg/ha): 100 % inhibition
Herbicidal activity, ECHOR (ECHOR [4]; 0.016 kg/ha): 0 % inhibition
Herbicidal activity, ECHOR (ECHOR [4]; 0.063 kg/ha): 30 % inhibition
Herbicidal activity, ECHOR (ECHOR [4]; 1.000 kg/ha): 100 % inhibition
Herbicidal activity, ECHOR (ECHOR [4]; 1.250 kg/ha): 80 % inhibition
Herbicidal activity, BROJA (BROJA [5]; 0.016 kg/ha): 0 % inhibition
Herbicidal activity, BROJA (BROJA [5]; 0.063 kg/ha): 0 % inhibition
Herbicidal activity, BROJA (BROJA [5]; 1.000 kg/ha): 100 % inhibition
Herbicidal activity, BROJA (BROJA [5]; 1.250 kg/ha): 40 % inhibition
Herbicidal activity, GLXMX (GLXMX; 0.016 kg/ha): 0 % inhibition
Herbicidal activity, GLXMX (GLXMX; 0.063 kg/ha): 0 % inhibition
Herbicidal activity, GLXMX (GLXMX; 1.000 kg/ha): 0 % inhibition
Herbicidal activity, GLXMX (GLXMX; 1.250 kg/ha): 0 % inhibition
Herbicidal activity, AESIN (AESIN; 0.016 kg/ha): 0 % inhibition
Herbicidal activity, AESIN (AESIN; 0.063 kg/ha): 0 % inhibition
Herbicidal activity, AESIN (AESIN; 1.000 kg/ha): 0 % inhibition
Herbicidal activity, AESIN (AESIN; 1.250 kg/ha): 0 % inhibition
Herbicidal activity, ABUTH (ABUTH [6]; 0.016 kg/ha): 0 % inhibition
Herbicidal activity, ABUTH (ABUTH [6]; 0.063 kg/ha): 0 % inhibition
Herbicidal activity, ABUTH (ABUTH [6]; 1.000 kg/ha): 0 % inhibition
Herbicidal activity, ABUTH (ABUTH [6]; 1.250 kg/ha): 0 % inhibition
Herbicidal activity, GOSHI (GOSHI [7]; 0.016 kg/ha): 0 % inhibition
Herbicidal activity, GOSHI (GOSHI [7]; 0.063 kg/ha): 0 % inhibition
Herbicidal activity, GOSHI (GOSHI [7]; 1.000 kg/ha): 0 % inhibition
Herbicidal activity, GOSHI (GOSHI [7]; 1.250 kg/ha): 0 % inhibition
Herbicidal activity, PANDI (PANDI [8]; 0.016 kg/ha): 40 % inhibition
Herbicidal activity, PANDI (PANDI [8]; 0.063 kg/ha): 100 % inhibition
Herbicidal activity, PANDI (PANDI [8]; 1.000 kg/ha): 100 % inhibition
Herbicidal activity, PANDI (PANDI [8]; 1.250 kg/ha): 100 % inhibition
Herbicidal activity, SOLNI (SOLNI [9]; 0.016 kg/ha): 0 % inhibition
Herbicidal activity, SOLNI (SOLNI [9]; 0.063 kg/ha): 0 % inhibition
Herbicidal activity, SOLNI (SOLNI [9]; 1.000 kg/ha): 0 % inhibition
Herbicidal activity, SOLNI (SOLNI [9]; 1.250 kg/ha): 0 % inhibition
Herbicidal activity, ORYSA (ORYSA [10]; 0.016 kg/ha): 0 % inhibition
Herbicidal activity, ORYSA (ORYSA [10]; 0.063 kg/ha): 50 % inhibition
Herbicidal activity, ORYSA (ORYSA [10]; 1.000 kg/ha): 100 % inhibition
Herbicidal activity, ORYSA (ORYSA [10]; 1.250 kg/ha): 100 % inhibition
Herbicidal activity, BROJA (BROJA [11]; 0.016 kg/ha): 0 % inhibition
Herbicidal activity, BROJA (BROJA [11]; 0.063 kg/ha): 40 % inhibition
Herbicidal activity, BROJA (BROJA [11]; 1.000 kg/ha): 100 % inhibition
Herbicidal activity, BROJA (BROJA [11]; 1.250 kg/ha): 70 % inhibition
Herbicidal activity, ABUTH (ABUTH [12]; 0.016 kg/ha): 0 % inhibition
Herbicidal activity, ABUTH (ABUTH [12]; 0.063 kg/ha): 0 % inhibition
Herbicidal activity, ABUTH (ABUTH [12]; 1.000 kg/ha): 0 % inhibition
Herbicidal activity, ABUTH (ABUTH [12]; 1.250 kg/ha): 0 % inhibition
Herbicidal activity, GOSHI (GOSHI [13]; 0.016 kg/ha): 0 % inhibition
Herbicidal activity, GOSHI (GOSHI [13]; 0.063 kg/ha): 30 % inhibition
Herbicidal activity, GOSHI (GOSHI [13]; 1.000 kg/ha): 50 % inhibition
Herbicidal activity, GOSHI (GOSHI [13]; 1.250 kg/ha): 40 % inhibition
pest or weed control at 2 g/ha (SAGPY; 0.002 kg/ha): 0%
pest or weed control at 8 g/ha (SAGPY; 0.008 kg/ha): 0%
pest or weed control at 31 g/ha (SAGPY; 0.031 kg/ha): 0%
pest or weed control at 125 g/ha (SAGPY; 0.125 kg/ha): 0%
pest or weed control at 500 g/ha (SAGPY; 0.500 kg/ha): 0%
pest or weed control at 2 g/ha (MOOVA; 0.002 kg/ha): 0%
pest or weed control at 8 g/ha (MOOVA; 0.008 kg/ha): 0%
pest or weed control at 31 g/ha (MOOVA; 0.031 kg/ha): 0%
pest or weed control at 125 g/ha (MOOVA; 0.125 kg/ha): 0%
pest or weed control at 500 g/ha (MOOVA; 0.500 kg/ha): 0%
pest or weed control at 2 g/ha (SCPJU; 0.002 kg/ha): 0%
pest or weed control at 8 g/ha (SCPJU; 0.008 kg/ha): 0%
pest or weed control at 31 g/ha (SCPJU; 0.031 kg/ha): 0%
pest or weed control at 125 g/ha (SCPJU; 0.125 kg/ha): 0%
pest or weed control at 500 g/ha (SCPJU; 0.500 kg/ha): 0%
plant injury at 2 g/ha (ORYSA [14]; [16]): 0%
plant injury at 8 g/ha (ORYSA [14]; [16]): 0%
plant injury at 31 g/ha (ORYSA [14]; [16]): 0%
plant injury at 125 g/ha (ORYSA [14]; [16]): 90%
plant injury at 500 g/ha (ORYSA [14]; [16]): 100%
plant injury at 2 g/ha (ORYSA [14]; [17]): 0%
plant injury at 8 g/ha (ORYSA [14]; [17]): 70%
plant injury at 31 g/ha (ORYSA [14]; [17]): 100%
plant injury at 125 g/ha (ORYSA [14]; [17]): 100%
plant injury at 500 g/ha (ORYSA [14]; [17]): 100%
pest or weed control at 2 g/ha (ECHOR [15]; 0.002 kg/ha): 95%
pest or weed control at 8 g/ha (ECHOR [15]; 0.008 kg/ha): 95%
pest or weed control at 31 g/ha (ECHOR [15]; 0.031 kg/ha): 100%
pest or weed control at 125 g/ha (ECHOR [15]; 0.125 kg/ha): 100%
pest or weed control at 500 g/ha (ECHOR [15]; 0.500 kg/ha): 100%
